{"source": "ChEMBL document CHEMBL4616610", "about": "“Discovery of a novel unsymmetrical structural class of HCV NS5A inhibitors with low picomolar antiviral activity” (Bioorg Med Chem Lett, 2020)", "key": {"Nonstructural protein 5A": {"molecular_target": "T1, Nonstructural protein 5A (Hepatitis C virus, UniProt Q5L478)", "T1 sequence (Q5L478 whole entry)": "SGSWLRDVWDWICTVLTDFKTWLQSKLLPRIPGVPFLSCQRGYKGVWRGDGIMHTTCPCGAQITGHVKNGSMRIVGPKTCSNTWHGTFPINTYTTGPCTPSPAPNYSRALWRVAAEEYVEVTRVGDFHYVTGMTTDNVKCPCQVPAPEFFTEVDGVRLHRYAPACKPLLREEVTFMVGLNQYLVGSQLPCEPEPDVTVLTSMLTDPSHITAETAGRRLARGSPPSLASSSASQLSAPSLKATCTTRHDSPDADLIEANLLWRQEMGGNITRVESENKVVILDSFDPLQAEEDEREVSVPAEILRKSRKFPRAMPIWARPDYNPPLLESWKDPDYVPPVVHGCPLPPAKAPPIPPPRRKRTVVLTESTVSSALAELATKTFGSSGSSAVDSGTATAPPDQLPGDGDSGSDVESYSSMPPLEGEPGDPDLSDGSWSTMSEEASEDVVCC", "experiment": "Inhibition of NS5A in Hepatitis C virus subtype 1b replicon infected in human HuH7 cells assessed as reduction in viral replication", "type": "cell-based", "settings": "huh-7; call rule not given here"}, "[1]": {"experiment": "Inhibition of NS5A Q30K mutant in Hepatitis C virus subtype 1a replicon infected in human HuH7 cells assessed as reduction in viral replication", "type": "cell-based", "settings": "Huh-7"}, "[2]": {"experiment": "Inhibition of NS5A in Hepatitis C virus subtype 1b replicon assessed as reduction in viral replication using Ac-Asp-Glu-Asp (EDANS)-Glu-Glu-Abu-(COO) Ala-Ser-Lys (DABCYL)-NH2 as substrate measured after 72 hrs by FRET assay"}, "[3]": {"experiment": "Inhibition of NS5A Q30K mutant in Hepatitis C virus subtype 1a replicon assessed as reduction in viral replication using Ac-Asp-Glu-Asp (EDANS)-Glu-Glu-Abu-(COO) Ala-Ser-Lys (DABCYL)-NH2 as substrate measured after 72 hrs by FRET assay"}}, "data": [{"smiles": "CCCC(=O)Nc1ccc(-c2ccc(-c3c[nH]c([C@@H]4CCCN4C(=O)[C@H](NC(=O)N4CCCC4)c4ccccc4)n3)cc2)cc1", "values": [{"measurement": "EC50", "setting": "Nonstructural protein 5A", "result": "Not Active"}]}, {"smiles": "CCCC(=O)Nc1ccc(-c2ccc(-c3c[nH]c([C@@H]4CCCN4C(=O)[C@H](NC(=O)c4ccccc4NC(=O)OCc4ccccc4)c4ccccc4)n3)cc2)cc1", "values": [{"measurement": "EC50", "setting": "Nonstructural protein 5A", "result": "Not Active"}]}, {"smiles": "CCCC(=O)Nc1ccc(-c2ccc(-c3c[nH]c([C@@H]4CCCN4C(=O)[C@H](NC(=O)c4ccc(NC(=O)OCc5ccccc5)cc4)c4ccccc4)n3)cc2)cc1", "values": [{"measurement": "EC50", "setting": "Nonstructural protein 5A", "result": "Not Active"}]}, {"smiles": "COC1CCN(C(=O)Nc2ccc(-c3ccc(-c4c[nH]c([C@@H]5CCCN5C(=O)[C@H](NC(=O)N5CC[C@@H](NC(=O)OCc6ccccc6)C5)c5ccccc5)n4)cc3)cc2)CC1", "values": [{"measurement": "EC50", "setting": "[1]", "result": 4.7, "unit": "nM"}]}, {"smiles": "CCCC(=O)Nc1ccc(-c2ccc(-c3c[nH]c([C@@H]4CCCN4C(=O)[C@H](NC(=O)CCCCCCc4ccccc4)c4ccccc4)n3)cc2)cc1", "values": [{"measurement": "EC50", "setting": "Nonstructural protein 5A", "result": "Not Active"}]}, {"smiles": "CCCC(=O)Nc1ccc(-c2ccc(-c3c[nH]c([C@@H]4CCCN4C(=O)[C@H](NC(=O)N4CCC[C@H](NC(=O)OCc5ccccc5)C4)c4ccccc4)n3)cc2)cc1", "values": [{"measurement": "EC50", "setting": "Nonstructural protein 5A", "result": "Not Active"}]}, {"smiles": "CCCC(=O)Nc1ccc(-c2ccc(-c3c[nH]c([C@@H]4CCCN4C(=O)[C@H](NC(=O)c4ccccc4)c4ccccc4)n3)cc2)cc1", "values": [{"measurement": "EC50", "setting": "Nonstructural protein 5A", "result": "Not Active"}]}, {"smiles": "CCCC(=O)Nc1ccc(-c2ccc(-c3c[nH]c([C@@H]4CCCN4C(=O)[C@H](NC(=O)CCCc4ccccc4)c4ccccc4)n3)cc2)cc1", "values": [{"measurement": "EC50", "setting": "Nonstructural protein 5A", "result": "Not Active"}]}, {"smiles": "COC(=O)N[C@H](C(=O)N1CCC[C@H]1c1ncc(-c2ccc(-c3ccc(-c4cnc([C@@H]5CCCN5C(=O)[C@@H](NC(=O)OC)C(C)C)[nH]4)cc3)cc2)[nH]1)C(C)C", "note": "[DACLATASVIR]", "values": [{"measurement": "EC50", "setting": "[2]", "result": 0.009, "unit": "nM"}, {"measurement": "EC50", "setting": "[3]", "result": 1230, "unit": "nM"}]}]}
